The record followed here is US9458104B2 (priority 2012, dated 2016).

For assay [1], the target named is T1, RORγ ligand binding domain (LBD) (Homo sapiens, UniProt P51449).
T1 construct: made in house; host or cells: E. coli BL-21 (BL3), vector pDEST15
T1 sequence (P51449 269-508 limits assumed): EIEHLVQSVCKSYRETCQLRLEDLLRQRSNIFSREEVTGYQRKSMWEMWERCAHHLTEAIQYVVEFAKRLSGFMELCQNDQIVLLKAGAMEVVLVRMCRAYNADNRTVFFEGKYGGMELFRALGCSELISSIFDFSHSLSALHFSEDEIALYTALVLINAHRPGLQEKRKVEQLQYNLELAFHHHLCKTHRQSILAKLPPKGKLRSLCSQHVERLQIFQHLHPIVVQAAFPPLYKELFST
As to the kind of experiment: TR-FRET Activity Assay (ligand sensing assay, RORγ-LBD / coactivator peptide interaction). The format is biochemical. A digest of the protocol:
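GST-RORγ LBD expressed in bacteria, 20–60 ng/well, with biotinylated coactivator peptide 200–600 nM, streptavidin-APC and Eu-anti-GST. Buffer: 20 mM Tris-HCl pH 6.8, 60 mM KCl, 1 mM DTT, 5 mM MgCl2, BSA; 1% DMSO. LANCE TR-FRET 665/615 nm ratio; IC50 from four-parameter logistic fit.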
On the technique in general: In TR-FRET formats the signal depends on donor and acceptor labels being close together.

The next assay has as its target T2, RORγ (UniProt P51449).
T2 construct: hRORg-LBD|aa259-518|NP_005051.2; hRORgt|aa1-497|NP_001001523 (RORg, t isoform, 497aa); mRORg-LBD|aa264-516|NP_035411
T2 sequence (P51449 1-518): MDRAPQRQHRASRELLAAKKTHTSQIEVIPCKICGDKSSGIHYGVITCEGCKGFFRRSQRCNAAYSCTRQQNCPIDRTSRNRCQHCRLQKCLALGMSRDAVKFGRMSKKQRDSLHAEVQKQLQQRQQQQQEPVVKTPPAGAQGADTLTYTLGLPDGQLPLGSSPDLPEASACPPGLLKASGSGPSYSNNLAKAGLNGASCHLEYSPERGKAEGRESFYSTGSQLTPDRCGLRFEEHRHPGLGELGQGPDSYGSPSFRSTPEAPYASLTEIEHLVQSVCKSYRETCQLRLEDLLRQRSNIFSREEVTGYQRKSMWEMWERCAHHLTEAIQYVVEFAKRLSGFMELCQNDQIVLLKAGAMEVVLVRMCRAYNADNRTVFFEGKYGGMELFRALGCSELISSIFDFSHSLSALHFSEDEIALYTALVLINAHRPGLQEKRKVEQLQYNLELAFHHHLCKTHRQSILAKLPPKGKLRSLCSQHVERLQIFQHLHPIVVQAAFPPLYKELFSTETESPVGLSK
The assay is classed as cell-based. To be noted: 293T cells, 16 h; for pIC50 (FF): firefly (FF) luciferase; for pIC50 (REN): renilla normalised (RENnorm) luciferase.

In the case of `Cc1c(C(=O)NCCC(C)(C)C(=O)O)cn(-c2ccc(S(=O)(=O)NC(C)(C)C)c(C(F)(F)F)c2)c1CC1CCCCC1` [Example 4, 4-(1-(4-(N-(tert-Butyl)sulfamoyl)-3-(trifluoromethyl)phenyl)-5-(cyclohexylmethyl)-4-methyl-1H-pyrrole-3-carboxamido)-2,2-dimethylbutanoic acid], the IC50 (as a rule, the concentration at which inhibition is half-maximal) in assay [1] was 0.501 µM. Further, at RORγ, the “pIC50 (FF)” value is given as 7.7 and the “pIC50 (REN)” value was found to be 7.7.
Turning to `Cc1c(C(=O)N[C@H]2C[C@H](C(=O)O)C2)cn(-c2ccc(S(=O)(=O)NC(C)(C)C)c(C(C)(C)C)c2)c1CC1CCCCC1` [Example 4/1], the IC50 in assay [1] was 1.26 µM. In addition, on RORγ, the “pIC50 (FF)” value was determined as 7.2 and the “pIC50 (REN)” value is 7.3.
`Cc1c(C(=O)N[C@H]2C[C@H](C(=O)O)C2)cn(-c2cc(C(C)(C)C)cc(C3(C)CC3)c2)c1C(=O)C1CCCCC1` [Example 6, (trans)-3-(1-(3-(tert-Butyl)-5-(1-methylcyclopropyl)phenyl)-5-(cyclohexanecarbonyl)-4-methyl-1H-pyrrole-3-carboxamido)cyclobutanecarboxylic acid] had a concentration for half-maximal inhibition (IC50) in assay [1] of 0.501 µM. Besides, on RORγ, the “pIC50 (FF)” value is reported as 7.9 and the “pIC50 (REN)” value amounted to 8.0.
In the case of `Cn1c(C(=O)N[C@H]2C[C@H](C(=O)O)C2)cc(-c2cc(C(C)(C)C)cc(C3(C)CC3)c2)c1CC1CCCCC1` [Example 8, (trans)-3-(4-(3-(tert-BUTYL)-5-(1-methylcyclopropyl)phenyl)-5-(cyclohexylmethyl)-1-methyl-1H-pyrrole-2-carboxamido)cyclobutanecarboxylic acid], the concentration for half-maximal inhibition (IC50) in assay [1] is 1 µM. In addition, at RORγ, the “pIC50 (FF)” value was determined as 7.6 and the “pIC50 (REN)” value was 7.7.
In assay [1], `Cn1c(C(=O)NCCC(C)(C)C(=O)O)cc(-c2ccc(S(=O)(=O)NC(C)(C)C)c(C(C)(C)C)c2)c1CC1CCCCC1` [Example 8/1] had a half-inhibitory concentration (IC50) of 2 µM. For the same molecule, on RORγ, the “pIC50 (FF)” value is 7.0 and the “pIC50 (REN)” value came to 7.0.
As for `Cc1c(C(=O)NCCC(C)(C)C(=O)O)c(Cl)n(-c2ccc(S(=O)(=O)NC(C)(C)C)c(C(F)(F)F)c2)c1CC1CCCCC1` [Example 9, 4-(1-(4-(N-(tert-Butyl)sulfamoyl)-3-(trifluoromethyl)phenyl)-2-chloro-5-(cyclohexylmethyl)-4-methyl-1H-pyrrole-3-carboxamido)-2,2-dimethylbutanoic acid], the concentration for half-maximal inhibition (IC50) in assay [1] is 0.794 µM. At RORγ, the “pIC50 (FF)” value is on record as 8.4 and the “pIC50 (REN)” value is reported as 8.4.
In assay [1], `Cc1c(C(=O)NCCC(C)(C)C(=O)O)c(C#N)n(-c2ccc(S(=O)(=O)NC(C)(C)C)c(C(F)(F)F)c2)c1CC1CCCCC1` [Example 10, 4-(1-(4-(N-(tert-Butyl)sulfamoyl)-3-(trifluoromethyl)phenyl)-2-cyano-5-(cyclohexylmethyl)-4-methyl-1H-pyrrole-3-carboxamido)-2,2-dimethylbutanoic acid] gave an IC50 of 1.58 µM. At RORγ, the “pIC50 (FF)” value came to 6.9 and the “pIC50 (REN)” value came to 6.9.
`CC(C)(C)c1cc(-c2[nH]c(C(=O)NC3CCOCC3)cc2CC2CCCCC2)cc(C2(C)CC2)c1` [Example 12, 5-(3-(tert-Butyl)-5-(1-methylcyclopropyl)phenyl)-4-(cyclohexylmethyl)-N-(tetrahydro-2H-pyran-4-yl)-1H-pyrrole-2-carboxamide] had a concentration for half-maximal inhibition (IC50) in assay [1] of 1 µM. At RORγ, the “pIC50 (FF)” value came out at 6.9 and the “pIC50 (REN)” value is 6.8.
Molecule `CC(C)(C)c1cc(-c2[nH]c(C(=O)N[C@H]3C[C@H](C(=O)O)C3)cc2CC2CCCCC2)cc(C2(C)CC2)c1` [Example 12/2] had a half-maximal inhibitory concentration (IC50) in assay [1] of 1.26 µM. Also, at RORγ, the “pIC50 (FF)” value is recorded as 6.6 and the “pIC50 (REN)” value is listed as 6.6.
With `Cc1c(C(=O)NC2CCOCC2)cn(-c2cc(C(C)(C)C)cc(C3(C)CC3)c2)c1C(=O)N1CCCCC1` [Example 13, 1-(3-(tert-Butyl)-5-(1-methylcyclopropyl)phenyl)-4-methyl-5-(piperidine-1-carbonyl)-N-(tetrahydro-2H-pyran-4-yl)-1H-pyrrole-3-carboxamide], the half-inhibitory concentration (IC50) in assay [1] was 1 µM. Moreover, on RORγ, the “pIC50 (FF)” value is given as 7.1 and the “pIC50 (REN)” value is on record as 7.1.
`Cc1c(C(=O)N[C@H]2C[C@H](C(=O)O)C2)cn(-c2cc(C(C)(C)C)cc(C3(C)CC3)c2)c1C(=O)N1CCCCC1` [Example 13/1]: the 50% inhibitory concentration (IC50) in assay [1] is 1 µM. Also, on RORγ, the “pIC50 (FF)” value is 6.7 and the “pIC50 (REN)” value stood at 6.8.
For `COC(c1c(C)c(C(=O)NC2CCOCC2)cn1-c1cc(C(C)(C)C)cc(C2(C)CC2)c1)C1CCCCC1` (stereo not drawn) [Example 14, 1-(3-(tert-Butyl)-5-(1-methylcyclopropyl)phenyl)-5-(cyclohexyl(methoxy)methyl)-4-methyl-N-(tetrahydro-2H-pyran-4-yl)-1H-pyrrole-3-carboxamide] the same measures were 2 µM, 6.1 and 6.3.
Consider `COC(c1c(C)c(C(=O)N[C@H]2C[C@H](C(=O)O)C2)cn1-c1cc(C(C)(C)C)cc(C2(C)CC2)c1)C1CCCCC1` (stereo partly drawn) [Example 14/1], for which the concentration for half-maximal inhibition (IC50) in assay [1] was 1.58 µM. Also, on RORγ, the “pIC50 (FF)” value was 6.6 and the “pIC50 (REN)” value was determined as 6.6.
With `Cc1c(C(=O)NC2CCOCC2)cn(-c2cc(C(C)(C)C)cc(C3(C)CC3)c2)c1C(O)C1CCCCC1` (stereo not drawn) [Example 15, 1-(3-(tert-Butyl)-5-(1-methylcyclopropyl)phenyl)-5-(cyclohexyl(hydroxy)methyl)-4-methyl-N-(tetrahydro-2H-pyran-4-yl)-1H-pyrrole-3-carboxamide], the IC50 in assay [1] is 0.631 µM. In addition, at RORγ, the “pIC50 (FF)” value is 7.0 and the “pIC50 (REN)” value is on record as 7.0.
On to `Cc1c(C(=O)N[C@H]2C[C@H](C(=O)O)C2)c(C)n(-c2cc(C(C)(C)O)cc(C3(C)CC3)c2)c1CC1CCCCC1` [Example 16, trans-3-(5-(Cyclohexylmethyl)-1-(3-(2-hydroxypropan-2-yl)-5-(1-methylcyclopropyl)phenyl)-2,4-dimethyl-1H-pyrrole-3-carboxamido)cyclobutanecarboxylic acid], for which, in assay [1], the concentration for half-maximal inhibition (IC50) was 1.58 µM. For the same molecule, at RORγ, the “pIC50 (FF)” value was determined as 6.6 and the “pIC50 (REN)” value stood at 6.7.
With `CC(C)(O)c1cc(-c2cc(C(=O)N[C@H]3C[C@H](C(=O)O)C3)[nH]c2CC2CCCCC2)cc(C2(C)CC2)c1` [Example 17, trans-3-(5-(Cyclohexylmethyl)-4-(3-(2-hydroxypropan-2-yl)-5-(1-methylcyclopropyl)phenyl)-1H-pyrrole-2-carboxamido)cyclobutanecarboxylic acid], the IC50 in assay [1] is 1.26 µM. On RORγ, the “pIC50 (FF)” value is reported as 6.4 and the “pIC50 (REN)” value is listed as 6.3.
In assay [1], `CC(C)(C)c1cc(-c2cc(C(=O)N[C@H]3C[C@H](C(=O)O)C3)[nH]c2CC2CCCCC2)cc(C2(C)CC2)c1` [Example 17/1] showed an IC50 of 0.794 µM. Besides, on RORγ, the “pIC50 (FF)” value was 7.0 and the “pIC50 (REN)” value is 7.1.
As for `CC(C)(C)c1cc(-c2[nH]c(C(=O)N[C@H]3C[C@H](C(=O)O)C3)c(Cl)c2CC2CCCCC2)cc(C2(C)CC2)c1` [Example 18, trans-3-(5-(3-(tert-Butyl)-5-(1-methylcyclopropyl)phenyl)-3-chloro-4-(cyclohexylmethyl)-1H-pyrrole-2-carboxamido)cyclobutanecarboxylic acid], in assay [1], the IC50 was 1.26 µM. In addition, on RORγ, the “pIC50 (FF)” value amounted to 6.6 and the “pIC50 (REN)” value is on record as 6.5.
`Cn1c(C(=O)N[C@H]2C[C@H](C(=O)O)C2)c(Cl)c(CC2CCCCC2)c1-c1cc(C(C)(C)C)cc(C2(C)CC2)c1` [Example 18/1]: the concentration for half-maximal inhibition (IC50) in assay [1] is 0.794 µM. At RORγ, the “pIC50 (FF)” value stood at 6.6 and the “pIC50 (REN)” value came out at 6.7.
For `Cn1c(C(=O)N[C@H]2C[C@H](C(=O)O)C2)cc(CC2CCCCC2)c1-c1cc(C(C)(C)C)cc(C2(C)CC2)c1` [Example 19/1] the same measures were 0.794 µM, 7.2 and 7.2.
Molecule `Cn1c(CC2CCCCC2)c(-c2cc(C(C)(C)C)cc(C3(C)CC3)c2)c(Cl)c1C(=O)N[C@H]1C[C@H](C(=O)O)C1` [Example 20, trans-3-(4-(3-(tert-Butyl)-5-(1-methylcyclopropyl)phenyl)-3-chloro-5-(cyclohexylmethyl)-1-methyl-1H-pyrrole-2-carboxamido)cyclobutanecarboxylic acid] gave a half-maximal inhibitory concentration (IC50) in assay [1] of 3.98 µM. In addition, at RORγ, the “pIC50 (FF)” value is recorded as 7.2 and the “pIC50 (REN)” value is 7.3.
